US6613734B2, “Peptides-containing liposomal surfactants” (The Scripps Research Institute, priority 1988, dated 2003)
Several values for one entry are separate records, joined by “and”; a condition that tells them apart may be missing. Equal entries are not always repeated. Marks after values point to notes of the source that are not given here.

Legend:
[1] = pulsating bubble technique ("bubble assay" of Enhorning, Enhorning Surfactometer); format: physicochemical; conditions: for Pressure Gradient 15″: 15 seconds; for Pressure Gradient 15″ / Pressure Gradient 1′ / Pressure Gradient 5′: peptide 10% by weight of PL, 37° C., negative pressure, mean of 3; for Pressure Gradient 1′: 1 minute; for Pressure Gradient 5′: 5 minutes
Experimental: Measurements of surface pressure across an air-liquid interface (expressed in negative cm of H2O pressure) at minimal (γmin) bubble radius were determined at various times using the pulsating bubble technique described by Enhorning, J. Appl. Physiol. 43: 198-203 (1977).
Briefly, the Enhorning Surfactometer (Surfactometer International, Toronto, Ontario) measures the pressure gradient (ΔP) across a liquid-air interface of a bubble that pulsates at a rate of 20 cycles/min between a maximal (0.55 mm) and minimal (0.4 mm) radius. The bubble, formed in a 37° C., water-enclosed, 20-μl sample chamber, is monitored through a microscopic optic while the pressure changes are recorded on a strip chart recorder calibrated for 0 and −2 cm H2O.
Each of the surfactants identified in Table 5 was assayed for surfactant activity as evidenced by their ability to reduce surface tension in vitro using the “bubble assay” of Enhorning as described above.
After admixture with solvent, each peptide was admixed with phospholipids (PL), DPPC:PG, 3:1, in chloroform in a glass tube so that the amount of polypeptide added equaled one-tenth (10% by. weight) of the amount of PL added, to form a surfactant according to either method A, B or C.
Each of the surfactants was then assayed for surfactant activity as evidenced by their ability to reduce surface tension in vitro in the bubble assay performed as described above. The pressure gradient (ΔP) is a measure of surfactant activity in the polypeptide-PL third admixture which was determined using an Enhorning Surfactometer as described above. Measurements were obtained at time points of 15 seconds (15″), 1 minute (1′) and 5 minutes (5′) and are expressed as a mean of three independent measurements of the indicated polypeptide-PL admixture.

[2] = observation whether peptide/solvent admixture formed a solution or a suspension; format: physicochemical
Experimental: Each polypeptide was admixed with the indicated solvent at a concentration of 2.5 mg of polypeptide per ml of solvent. […] Those admixtures forming a suspension were further admixed by water bath sonication for 10 seconds to form a very fine suspension, sufficient for pipetting using glass pipettes.

[3] = tested on: fetal rabbit lung; test: dynamic compliance, fetal rabbit model; format: in vivo; conditions: single animal per line
Experimental: A subject polypeptide was first admixed with solvent as described in Example 3. […]
Surfactant was instilled in rabbit fetal lung by injection into the trachea from a single syringe of the following three components such that the components exit the syringe in the following order: (1) 0.05 ml air; (2) 0.1 ml of a synthetic surfactant prepared in Example 4A or either 2 mg of PL or 2 mg of native surfactant; and (3) 0.1 ml air.
From one syringe, a 0.1 ml aliquot of synthetic surfactant prepared as described in Example 4A (or 2 mg of NS or of PL), was instilled into the rabbit trachea as described above, followed by injection of 0.05 ml lactated Ringer's Solution and 0.2 ml air from a second syringe.
From one syringe, 0.1 ml of a synthetic surfactant prepared as described in Example 4A (or 2 mg of NS or of PL), 0.15 ml air, 0.1 ml saline, and 0.3 ml air were injected into the trachea as described above. Two subsequent aliquots of 0.3 ml air were given.
The surfactant activity of exemplary polypeptides of this invention was studied using the methods described in detail previously by Revak, et al, Am. Rev. Respir. Dis. 134: […] (1986), with the exceptions noted hereinbelow.
Twenty-seven day gestation fetal rabbits were delivered by hysterotomy and immediately injected with 0.05 ml Norcuron (Organon, Inc., N.J.) to prevent spontaneous breathing. The fetal rabbits were then weighed and a small cannula was inserted into the trachea by tracheotomy surfactant prepared as described above was then instilled into the fetal rabbit lung by one of the above instillation protocols.
Following instillation the rabbit was placed in a specially designed plethysmograph (containing a Celesco transducer) connected to a ventilator (Baby Bird, Baby Bird Corp., Palm Springs, Calif.) and the instilled lung was ventilated at a rate of 30 cycles per minute with a peak inspiratory pressure of 25 cm H2O, a positive end expiratory pressure of 4 cm H2O and an inspiratory time of 0.5 seconds. In some studies, dynamic compliance measurements were made at various times throughout the ventilation procedure. In others, static compliance measurements were made following ventilation.
Using the plethysmograph, dynamic compliance measurements were made at various times throughout a 60 minute ventilation period. […] Compliance was calculated by the formula below. [formula]
The above equation was solved with a multiple linear regression for C and R. The compliance (C) represents the elastic nature of the lungs and the resistance (R) represents the pressure necessary to overcome the resistance to the flow of gas into and out of the lungs.

[4] = 2.5 μg of peptide per μl of solvent, solvent methanol:H2O
[5] = 2.5 mg of polypeptide per ml of solvent, solvent 75% chloroform 25% methanol
[6] = 2.5 μg of peptide per μl of solvent, solvent H2O

RYSVILLDTLLGRMLPQLVCRLVLRCSMDD [p52-81]
Pressure Gradient 15″ ([1]; PL (DPPC:PG 3:1) 4 mg/ml): 1.33 cm of H2O | Pressure Gradient 1′ ([1]; PL (DPPC:PG 3:1) 4 mg/ml): 1.19 cm of H2O | Pressure Gradient 5′ ([1]; PL (DPPC:PG 3:1) 4 mg/ml): 0.96 cm of H2O | Admixture Formed [2, 4]: suspension | Admixture Formed ([2]; 2.5 mg of polypeptide per ml of solvent, solvent 67% DMF 33% chloroform): solution | Dynamic Compliance, 30 minutes after surfactant instillation ([3]; 5% peptide to PL, Protocol 3): 517 ml air/cm H2O (g body weight × 10^6) and 434 ml air/cm H2O (g body weight × 10^6) | Dynamic Compliance, 60 minutes after surfactant instillation ([3]; 5% peptide to PL, Protocol 3): 226* ml air/cm H2O (g body weight × 10^6) and 55* ml air/cm H2O (g body weight × 10^6) | Dynamic Compliance, 30 minutes after surfactant instillation ([3]; 10% peptide to PL, Protocol 2): 195 ml air/cm H2O (g body weight × 10^6) and 43 ml air/cm H2O (g body weight × 10^6) | Dynamic Compliance, 60 minutes after surfactant instillation ([3]; 10% peptide to PL, Protocol 2): 1,243 ml air/cm H2O (g body weight × 10^6) and 1,690 ml air/cm H2O (g body weight × 10^6)

DTLLGRMLPQLVCRLVLRCSMDD [p59-81]
Pressure Gradient 15″ ([1]; PL (DPPC:PG 3:1) 4 mg/ml): 1.08 cm of H2O | Pressure Gradient 1′ ([1]; PL (DPPC:PG 3:1) 4 mg/ml): 1.02 cm of H2O | Pressure Gradient 5′ ([1]; PL (DPPC:PG 3:1) 4 mg/ml): 0.75 cm of H2O | Admixture Formed ([2]; 2.5 mg of polypeptide per ml of solvent, solvent 68% chloroform 32% methanol): solution

RLLLLRLLLLRLLLLRLLLLR [RL4]
Pressure Gradient 15″ ([1]; PL (DPPC:PG 3:1) 4 mg/ml): 0.58 cm of H2O | Pressure Gradient 1′ ([1]; PL (DPPC:PG 3:1) 4 mg/ml): 0.65 cm of H2O | Pressure Gradient 5′ ([1]; PL (DPPC:PG 3:1) 4 mg/ml): 0.33 cm of H2O | Admixture Formed ([2]; 2.5 mg of polypeptide per ml of solvent, solvent 32% chloroform 68% methanoi): solution

RLLLLCLLLRLLLLCLLLRLL [RCL-2]
Pressure Gradient 15″ ([1]; PL (DPPC:PG 3:1) 10 mg/ml): 0.00 cm of H2O | Pressure Gradient 1′ ([1]; PL (DPPC:PG 3:1) 10 mg/ml): 0.00 cm of H2O | Pressure Gradient 5′ ([1]; PL (DPPC:PG 3:1) 10 mg/ml): 0.00 cm of H2O | Admixture Formed ([2]; 2.5 mg of polypeptide per ml of solvent, solvent 67% chloroform 33% methanol): suspention

RLLLLCLLLRLLLLCLLLRLLLLCLLLR [RCL-3]
Pressure Gradient 15″ ([1]; PL (DPPC:PG 3:1) 10 mg/ml): 0.55 cm of H2O | Pressure Gradient 1′ ([1]; PL (DPPC:PG 3:1) 10 mg/ml): 0.51 cm of H2O | Pressure Gradient 5′ ([1]; PL (DPPC:PG 3:1) 10 mg/ml): 0.33 cm of H2O | Admixture Formed [2, 5]: suspension

p74-81: eight amino acid residue control peptide, residues 74-81 of SEQ ID NO 12 (SP18), does not conform to the teachings of the invention (VLRCSMDD) [reference compound]
Pressure Gradient 15″ ([1]; PL (DPPC:PG 3:1) 4 mg/ml): 2.37 cm of H2O | Pressure Gradient 1′ ([1]; PL (DPPC:PG 3:1) 4 mg/ml): 2.32 cm of H2O | Pressure Gradient 5′ ([1]; PL (DPPC:PG 3:1) 4 mg/ml): 2.31 cm of H2O | surfactant activity compared with the phospholipids alone ([1]; peptide admixed with phospholipids (DPPC:PG 3:1), bubble assay): did not form a PS having a greater activity than the phospholipid alone | Admixture Formed [2, 6]: solution | Admixture Formed ([2]; 2.5 mg of polypeptide per ml of solvent, solvent water): solution

VAGGICQCLAERYSV [p41-55]
Admixture Formed [2, 6]: solution

CQCLAERYSVILLDTLLGRMLPQLVCRLVLR [p46-76]
Pressure Gradient 15″ ([1]; PL (DPPC:PG 3:1) 10 mg/ml): 0.90 cm of H2O | Pressure Gradient 1′ ([1]; PL (DPPC:PG 3:1) 10 mg/ml): 0.80 cm of H2O | Pressure Gradient 5′ ([1]; PL (DPPC:PG 3:1) 10 mg/ml): 0.62 cm of H2O | Admixture Formed ([2]; 2.5 mg of polypeptide per ml of solvent, solvent 64% chloroform 36% methanol): solution

LLGRMLPQLVCRLVL [p61-75]
Admixture Formed ([2]; 2.5 μg of peptide per μl of solvent, solvent methanol): suspension

VAQVCRVVPLVAGGI [p31-45]
Admixture Formed [2, 6]: solution

MIPKGALAVAVAQVC [p21-35]
Admixture Formed ([2]; 2.5 μg of peptide per μl of solvent, solvent Chloroform): suspension

ERYSVILLDTLLGRM [p51-65]
Admixture Formed [2, 6]: suspension

RLLLLLLLLRLLLLLLLLRLL [RL8]
Pressure Gradient 15″ ([1]; PL (DPPC:PG 3:1) 10 mg/ml): 0.68 cm of H2O | Pressure Gradient 1′ ([1]; PL (DPPC:PG 3:1) 10 mg/ml): 0.69 cm of H2O | Pressure Gradient 5′ ([1]; PL (DPPC:PG 3:1) 10 mg/ml): 0.19 cm of H2O | Admixture Formed ([2]; 2.5 mg of polypeptide per ml of solvent, solvent 19% chloroform 81% methanol): suspension

C RLVLRCSMDD (N-terminal Cys) [p71-81]
Admixture Formed [2, 6]: suspension

SVILLDTLLGRMLPQLVCRLVLR [p54-76]
Pressure Gradient 15″ ([1]; PL (DPPC:PG 3:1) 10 mg/ml): 0.92 cm of H2O | Pressure Gradient 1′ ([1]; PL (DPPC:PG 3:1) 10 mg/ml): 0.82 cm of H2O | Pressure Gradient 5′ ([1]; PL (DPPC:PG 3:1) 10 mg/ml): 0.23 cm of H2O | Admixture Formed ([2]; 2.5 mg of polypeptide per ml of solvent, solvent 71% chloroform 24% methanol): suspension

ERYSVILLDTLLGRMLPQLVCR [p51-72]
Pressure Gradient 15″ ([1]; PL (DPPC:PG 3:1) 10 mg/ml): 1.15 cm of H2O | Pressure Gradient 1′ ([1]; PL (DPPC:PG 3:1) 10 mg/ml): 0.76 cm of H2O | Pressure Gradient 5′ ([1]; PL (DPPC:PG 3:1) 10 mg/ml): 0.33 cm of H2O | Admixture Formed [2, 5]: suspension

RLLLLCLLLRLLLLCLLLR [RCL-1]
Pressure Gradient 15″ ([1]; PL (DPPC:PG 3:1) 10 mg/ml): 0.50 cm of H2O | Pressure Gradient 1′ ([1]; PL (DPPC:PG 3:1) 10 mg/ml): 0.59 cm of H2O | Pressure Gradient 5′ ([1]; PL (DPPC:PG 3:1) 10 mg/ml): 0.06 cm of H2O | Admixture Formed ([2]; 2.5 mg of polypeptide per ml of solvent, solvent 79% chloroform 21% methanol): suspension

RRLLLLLLLRRLLLLLLLRRL [RL7]
Pressure Gradient 15″ ([1]; PL (DPPC:PG 3:1) 4 mg/ml): 1.65 cm of H2O | Pressure Gradient 1′ ([1]; PL (DPPC:PG 3:1) 4 mg/ml): 1.25 cm of H2O | Pressure Gradient 5′ ([1]; PL (DPPC:PG 3:1) 4 mg/ml): 1.00 cm of H2O | Admixture Formed ([2]; 2.5 mg of polypeptide per ml of solvent, solvent 49% chloroform 51% methanol): solution

LPQLVCRLVLRCSMDD [p66-81]
Pressure Gradient 15″ ([1]; PL (DPPC:PG 3:1) 4 mg/ml): 1.22 cm of H2O | Pressure Gradient 1′ ([1]; PL (DPPC:PG 3:1) 4 mg/ml): 1.11 cm of H2O | Pressure Gradient 5′ ([1]; PL (DPPC:PG 3:1) 4 mg/ml): 0.84 cm of H2O | Admixture Formed [2, 4]: suspension | Admixture Formed ([2]; 2.5 mg of polypeptide per ml of solvent, solvent 40% DMF 60% chloroform): suspension

ERYSVILLDTLLGRMLPQLVCRLVLRCSMDD [p51-81]
Pressure Gradient 15″ ([1]; PL (DPPC:PG 3:1) 10 mg/ml): 0.94 cm of H2O | Pressure Gradient 1′ ([1]; PL (DPPC:PG 3:1) 10 mg/ml): 0.86 cm of H2O | Pressure Gradient 5′ ([1]; PL (DPPC:PG 3:1) 10 mg/ml): 0.64 cm of H2O | Admixture Formed ([2]; 2.5 mg of polypeptide per ml of solvent, solvent 50% chloroform 50% methanol): suspension

SVILLDTLLGRMLPQLVCR [p54-72]
Pressure Gradient 15″ ([1]; PL (DPPC:PG 3:1) 10 mg/ml): 1.28 cm of H2O | Pressure Gradient 1′ ([1]; PL (DPPC:PG 3:1) 10 mg/ml): 0.92 cm of H2O | Pressure Gradient 5′ ([1]; PL (DPPC:PG 3:1) 10 mg/ml): 0.38 cm of H2O | Admixture Formed ([2]; 2.5 mg of polypeptide per ml of solvent, solvent 76% chloroform 24% methanol): suspension

CRALIKRIQAMIPKG [p11-25]
Admixture Formed [2, 6]: solution
